Data published in patent publication US8163742B2, “Di-amino-substituted heterocyclic compounds and methods of use” (Amgen Inc., priority 2006, dated 2012).

System: SCF-stimulated UT-7 cells
Assay: SCF stimulated UT7 proliferation/survival assay
Type: cell-based
Settings: Homo sapiens, average value
Source text: SCF and GM-CSF Stimulated UT7 Proliferation/Survival Assay:
The purpose of this assay is to test the general anti-proliferative/cytotoxic effect of small molecule compounds on SCF or GM-CSF-stimulated UT-7 cells. Preventing SCF stimulated proliferation/survival is consistent with an on-mechanism effect whereas inhibition of GM-CSF driven proliferation/survival is indicative of off-target effects. UT-7 is a factor dependent human megakaryoblastic leukemia cell line that can be grown in either IL-3, GM-CSF, EPO or SCF (these cells have been confirmed to carry wild type c-kit receptor). Cells are maintained in growth media (IMDM, 10% HI-FBS, 1×PGS, 1 ng/mL GM-CSF). […] The amount of ATP is then measured as a surrogate marker for cell viability. This is accomplished by adding 50 μL of Perkin Elmer ATP 1 step reagent (as per instructed in the reagent manual, Cat. No. 6016739), incubating at RT for 15 min and reading the luminescence with a Perkin Elmer Topcount NXT™HTS (model c384) plate reader. The amount of SCF or GM-CSF stimulated viable cells in the presence of compound compared with in the presence of vehicle alone (HI control) is calculated using the formula: % control (POC)=(cpd−average LO)/(average HI−average LO)*100. […]

With `FC(F)(F)c1cccc(Nc2noc3c(Nc4nccc(-c5cccnc5)n4)c(Cl)ccc23)c1` [Example 1, 6-chloro-N-7-(4-(pyridin-3-yl)pyrimidin-2-yl)-N3-(3-(trifluoromethyl)phenyl)benzo[d]isoxazole-3,7-diamine] the IC50 was about 44 nM.
